Results on one compound are retold here after patent publication US7329422B2, “Pharmaceutical compositions” (priority 2002, dated 2008).

Assay [1] concerns human breast cancer cells. Put plainly: purified B-2 compound on human breast cancer cells grown in tissue culture. The assay is classed as cell-based. From the text: (§1) Test were made of the purified B-2 compound on human breast cancer cells grown in tissue culture.
Assay [2] concerns human liver cancer cells. Put plainly: purified B-2 compound on human liver cancer cells in tissue culture. The class given is cell-based. As to conditions: visually evident.
Description: as §1
The experiment was repeated using human liver cancer cells.

Each structure is given as a SMILES string.

`Oc1cc(O)c2c(c1)O[C@H](c1ccc(O)c(O)c1)[C@H](O)[C@H]2c1c(O)cc(O)c2c1O[C@H](c1ccc(O)c(O)c1)[C@H](O)C2` [purified B-2 compound, procyanidin B-2]: the “number of cells in treated samples” value in assay [1] was “marked reduction”. The “number of cancer cells” value in assay [2] is on record as “substantially reduced”.
